The text below walks through data of patent publication US10981932B2, “Macrocyclic indole derivatives” (Bayer Aktiengesellschaft, priority 2016, dated 2021).

In general, EC50 refers to the concentration that produces a half-maximal response.

Structures can show the parent of a compound that is named as a salt. Where two headings read alike, the source gives them in different places.

One data set has as its target MCL-1 (Homo sapiens, UniProt Q07820). Put plainly: Protein-protein interaction assay MCL-1/Noxa BH3 peptide (MCL-1 assay), TR-FRET. It counts as binding. As to conditions: MBP-MCL-1 / Noxa BH3-derived peptide, median. An outline of the steps:
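Inhibition values were normalized between DMSO controls with all reagents and controls lacking MCL-1. The binding competition used 1 nM MBP-MCL-1 in pH 7 Tris buffer containing 50 mM KF and 100 mM NaCl, with a 10 min compound preincubation at 22 °C.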
(In TR-FRET formats the signal depends on donor and acceptor labels being close together.)

For data set [1], the system named is SUDHL10. Put plainly: Induction of caspase-3/7 activity (Caspase-Glo 3/7), SUDHL10. The data set is classed as cell-based. Particulars: caspase-3/7 induction, SUDHL10 cells, 3 h treatment, median. An outline of the steps: (§1)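 Apoptosis induction measured as caspase-3/7 activity (Caspase-Glo 3/7) in DLBCL lines after 3 h treatment at 37 °C; EC50 derived relative to the reference compound's maximal induction, with C0 fixed at 1.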

Data set [2] deals with SUDHL5. As to the kind of experiment: Anti-proliferative effect (CellTiter-Glo, 72 h), SUDHL5. Particulars: SUDHL5 cells, antiproliferation, 72 h incubation, median, read-out: Antiproli SUDHL5 [M] (median). It counts as cell-based. In outline: (§2)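 Luminescence from CellTiter-Glo, read 10 min after reagent addition, reports viable cell content after 72 h of compound treatment at 37 °C. A reference plate read at day 0 gives the starting baseline.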
For orientation: ATP-based viability assays read luminescence as a measure of living cells.

A further data set relates to A2780. Put plainly: Anti-proliferative effect (CellTiter-Glo, 72 h), A2780. The data set is classed as cell-based. Particulars: A2780 cells, median, read-out: IC50 antiproliferation assay A2780 [M] (median). An outline of the steps:
as §2

Data set [3] concerns SUDHL5. Put plainly: Induction of caspase-3/7 activity (Caspase-Glo 3/7), SUDHL5. The data set is classed as cell-based. As to conditions: caspase-3/7 induction, SUDHL5 cells, 3 h treatment, median. An outline of the steps: as §1
The subject of data set [4] is SUDHL10. Put plainly: Induction of cytotoxicity (CellTiter-Glo, 5 h), SUDHL10.
Where [5] appears, read: read-out: Cytotox SUDHL10 [M] (median), SUDHL10 cells, cytotoxicity induction, CellTiter-Glo, 5 h incubation, median.

Chain of MCL-1 (Q07820 whole entry): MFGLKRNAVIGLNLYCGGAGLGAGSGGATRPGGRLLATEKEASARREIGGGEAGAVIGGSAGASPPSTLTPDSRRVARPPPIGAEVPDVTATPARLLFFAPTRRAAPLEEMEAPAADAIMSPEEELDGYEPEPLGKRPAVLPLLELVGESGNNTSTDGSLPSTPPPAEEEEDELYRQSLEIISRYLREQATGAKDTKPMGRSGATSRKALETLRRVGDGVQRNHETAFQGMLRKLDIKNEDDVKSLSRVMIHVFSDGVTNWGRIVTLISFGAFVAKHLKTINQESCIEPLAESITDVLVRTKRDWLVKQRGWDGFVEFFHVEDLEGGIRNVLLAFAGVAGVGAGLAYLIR

In the case of `Cc1nn(C)c2c1-c1cccc3c(CCCOc4cccc5ccccc45)c(C(=O)O)n(c13)CCCN(C)C2` (single isomer, unassigned; enantiomer 1) [Example 1-31, 7,9,11-trimethyl-1-[3-(naphthalen-1-yloxy)propyl]-4,5,6,7,8,9-hexahydropyrazolo[3′,4′:7,8][1,5]diazecino[9,10,1-hi]indole-2-carboxylic Acid-N-ethylethanamine Salt (Enantiomer 1)], the IC50 against MCL-1 is 0.00462 µM; with SUDHL5 [2], 3.12e-06 M; in the data set on A2780 (Homo sapiens, A2780, 72 h) it was greater than 3.3e-05 M; in the data set with SUDHL10 [4] (setting [5]), 1.61e-05 M. Besides, the results for the concentration giving a half-maximal response (EC50) in the data set with SUDHL10 [1] and with SUDHL5 [3] were 7.27 µM and 4.33 µM, respectively.

As to `Cc1c2c(nn1C)COCCCCn1c(C(=O)O)c(CCCOc3cccc4ccccc34)c3cccc-2c31` (single isomer, unassigned; enantiomer 1) [Example 1-37, (+)-2,3-dimethyl-7-[3-(naphthalen-1-yloxy)propyl]-2,10,11,12,13,15-hexahydropyrazolo[4′,3′:9,10][1,6]oxazacycloundecino[8,7,6-hi]indole-8-carboxylic Acid (Enantiomer 1)], the IC50 against MCL-1 amounted to 0.00172 µM; in the data set on SUDHL5 [2] it was 2.54e-06 M; in the data set with A2780 (Homo sapiens, A2780, 72 h), 3.02e-05 M; with SUDHL10 [4] (setting [5]), 8.41e-06 M. For the same compound, the concentration giving a half-maximal response (EC50) is 3.84 µM in the data set on SUDHL10 [1] and 2.44 µM with SUDHL5 [3].

`CN1CCCn2c(C(=O)O)c(CCCOc3cccc4ccccc34)c3cccc(c32)-c2c(CN3CCOCC3)nn(C)c2C1` (single isomer, unassigned; enantiomer 1) [Example 1-43, (+)-7,9-dimethyl-11-(morpholin-4-ylmethyl)-1-[3-(naphthalen-1-yloxy)propyl]-4,5,6,7,8,9-hexahydropyrazolo[3′,4′:7,8][1,5]diazecino[9,10,1-hi]indole-2-carboxylic Acid (Enantiomer 1)]: the IC50 against MCL-1 is 0.00799 µM; in the data set with SUDHL5 [2] (Homo sapiens, SU-DHL-5, 72 h), 9.58e-06 M; in the data set on A2780 (Homo sapiens, A2780, 72 h), 2.48e-05 M; with SUDHL10 [4] (setting [5]), 1.48e-05 M. Also, the 50% effective concentration (EC50) came to 11.1 µM with SUDHL10 [1] (Homo sapiens, SU-DHL10, 3 h) and 6.57 µM with SUDHL5 [3] (Homo sapiens, SU-DHL-5, 3 h).

As to `CN1CCCn2c(C(=O)O)c(CCCOc3cccc4ccccc34)c3cccc(c32)-c2c(COc3ccc(N4CCN(S(C)(=O)=O)CC4)cc3)nn(C)c2C1` (single isomer, unassigned; enantiomer 1) [Example 1-46, (+)-7,9-dimethyl-11-({4-[4-(methylsulfonyl)piperazin-1-yl]phenoxy}methyl)-1-[3-(naphthalen-1-yloxy)propyl]-4,5,6,7,8,9-hexahydropyrazolo[3′,4′:7,8][1,5]diazecino[9,10,1-hi]indole-2-carboxylic Acid (Enantiomer 1)], the IC50 at MCL-1 is 0.00143 µM; in the data set with SUDHL5 [2], 9.89e-07 M; in the data set with A2780 (Homo sapiens, A2780, 72 h), 7.08e-06 M; with SUDHL10 [4] (setting [5]), 2.29e-06 M. The concentration giving a half-maximal response (EC50) in the data set with SUDHL10 [1] came out at 1.74 µM; in the data set on SUDHL5 [3] it was 0.776 µM.

Consider `Cc1nn(C)c2c1-c1cccc3c(CCCOc4cccc5cc(F)ccc45)c(C(=O)O)n(c13)CCCCOC2` (single isomer, unassigned; enantiomer 1) [Example 019, 7-{3-[(6-fluoronaphthalen-1-yl)oxy]propyl}-1,3-dimethyl-1,10,11,12,13,15-hexahydropyrazolo[4′,3′:9,10][1,6]oxazacycloundecino[8,7,6-hi]indole-8-carboxylic Acid-N-ethylethanamine Salt (Enantiomer 1)], for which the IC50 at MCL-1 was 0.000862 µM; with SUDHL5 [2], 3.65e-06 M; in the data set with A2780 it was greater than 3.3e-05 M; in the data set with SUDHL10 [4] (setting [5]), 3.76e-06 M. The concentration giving a half-maximal response (EC50) in the data set with SUDHL10 [1] came to 5.16 µM; in the data set with SUDHL5 [3], 1.52 µM.

As to `Cc1nn(C)c2c1-c1cccc3c(CCCOc4cccc5cc(Cl)ccc45)c(C(=O)O)n(c13)CCCCOC2` (single isomer, unassigned; enantiomer 1) [Example 041, 7-{3-[(6-chloronaphthalen-1-yl)oxy]propyl}-1,3-dimethyl-1,10,11,12,13,15-hexahydropyrazolo[4′,3′:9,10][1,6]oxazacycloundecino[8,7,6-hi]indole-8-carboxylic acid-N-ethylethanamine Salt (Enantiomer 1)], the IC50 against MCL-1 came to 0.00444 µM; in the data set with SUDHL5 [2] (Homo sapiens, SU-DHL-5, 72 h), 9.88e-06 M; with A2780 (Homo sapiens, A2780, 72 h) it was 1.81e-05 M; in the data set on SUDHL10 [4] (setting [5]) it was 1.46e-05 M. Further, the 50% effective concentration (EC50) in the data set with SUDHL10 [1] (Homo sapiens, SU-DHL10, 3 h) was found to be 18.2 µM; in the data set with SUDHL5 [3], 13.1 µM.

For the compound `Cc1nn(C)c2c1-c1cccc3c(CCCOc4cccc5cc(F)ccc45)c(C(=O)O)n(c13)CCCOC2` (single isomer, unassigned; enantiomer 1) [Example 047, 1-{3-[(6-fluoronaphthalen-1-yl)oxy]propyl}-9,11-dimethyl-5,6,8,9-tetrahydro-4H-pyrazolo[4′,3′:8,9][1,5]oxazecino[7,6,5-hi]indole-2-carboxylic acid-N-ethylethanamine Salt (Enantiomer 1)], the IC50 against MCL-1 came to 0.00286 µM; with SUDHL5 [2], 4.41e-06 M; in the data set on A2780 it was 2.69e-05 M; with SUDHL10 [4] (setting [5]), 6.49e-06 M. Besides, the EC50 on SUDHL10 [1] is 6.66 µM; at SUDHL5 [3], 2.96 µM.

As to `COCCn1nc2c(c1CN1CCOCC1)-c1cccc3c(CCCOc4cccc5ccccc45)c(C(=O)O)n(c13)CCCN(C)C2` (single isomer, unassigned; enantiomer 1) [Example 057, 10-(2-methoxyethyl)-7-methyl-11-(morpholin-4-ylmethyl)-1-[3-(naphthalen-1-yloxy)propyl]-4,5,6,7,8,10-hexahydropyrazolo[3′,4′:7,8][1,5]diazecino[9,10,1-hi]indole-2-carboxylic Acid (Enantiomer 1)], the IC50 against MCL-1 amounted to 0.0453 µM; in the data set on SUDHL5 [2] (Homo sapiens, SU-DHL-5, 72 h), 1.04e-05 M; in the data set with A2780 (Homo sapiens, A2780, 72 h), 3.01e-05 M; in the data set with SUDHL10 [4] (Homo sapiens, SU-DHL10, 5 h, read-out: Cytotox SUDHL10 [M] (median), SUDHL10 cells, cytotoxicity induction, CellTiter-Glo, 5 h incubation, median), 2.39e-05 M. Further, the 50% effective concentration (EC50) with SUDHL10 [1] (Homo sapiens, SU-DHL10, 3 h) amounted to 24.7 µM; with SUDHL5 [3] (Homo sapiens, SU-DHL-5, 3 h), 27.9 µM.

Turning to `Cc1c2c(nn1CCN1CCOCC1)CN(C)CCCn1c(C(=O)O)c(CCCOc3cccc4ccccc34)c3cccc-2c31` (single isomer, unassigned; enantiomer 1) [Example 060, 7,11-dimethyl-10-[2-(morpholin-4-yl)ethyl]-1-[3-(naphthalen-1-yloxy)propyl]-4,5,6,7,8,10-hexahydropyrazolo[3′,4′:7,8][1,5]diazecino[9,10,1-hi]indole-2-carboxylic Acid (Enantiomer 1)], the IC50 stood at 0.00544 µM at MCL-1; 1.79e-06 M in the data set on SUDHL5 [2]; 2.21e-05 M with A2780 (Homo sapiens, A2780, 72 h); 7.87e-06 M in the data set with SUDHL10 [4] (setting [5]). Moreover, the half-maximal effective concentration (EC50) with SUDHL10 [1] was determined as 8.54 µM; in the data set on SUDHL5 [3] it was 5.13 µM.

As to `Cc1ccc2c(CCCOc3cccc4ccccc34)c(C(=O)O)n3c2c1-c1c(nn(C)c1C)CN(C)CCC3` (single isomer, unassigned; enantiomer 1) [Example 073, 7,10,11,12-tetramethyl-1-[3-(naphthalen-1-yloxy)propyl]-4,5,6,7,8,10-hexahydropyrazolo[3′,4′:7,8][1,5]diazecino[9,10,1-hi]indole-2-carboxylic Acid (Enantiomer 1)], the IC50 at MCL-1 was 0.00206 µM; in the data set on SUDHL5 [2], 3.23e-06 M; in the data set on A2780 (Homo sapiens, A2780, 72 h), 1.4e-05 M; in the data set on SUDHL10 [4] (setting [5]) it was 3.67e-06 M. Besides, the concentration for a half-maximal effect (EC50) with SUDHL10 [1] came out at 2.94 µM; in the data set on SUDHL5 [3], 2.12 µM.
